What follows are compounds tested against T1, purified human HDAC6 (Homo sapiens, UniProt Q9UBN7) (assay: HDAC6 Enzyme Assay). Conditions: bin: greater than 500 nM and less than 1 μM (lower bound in nM, upper bound in μM).
T1 construct: purchased BPS Bioscience 5006
T1 sequence (Q9UBN7 1-1215): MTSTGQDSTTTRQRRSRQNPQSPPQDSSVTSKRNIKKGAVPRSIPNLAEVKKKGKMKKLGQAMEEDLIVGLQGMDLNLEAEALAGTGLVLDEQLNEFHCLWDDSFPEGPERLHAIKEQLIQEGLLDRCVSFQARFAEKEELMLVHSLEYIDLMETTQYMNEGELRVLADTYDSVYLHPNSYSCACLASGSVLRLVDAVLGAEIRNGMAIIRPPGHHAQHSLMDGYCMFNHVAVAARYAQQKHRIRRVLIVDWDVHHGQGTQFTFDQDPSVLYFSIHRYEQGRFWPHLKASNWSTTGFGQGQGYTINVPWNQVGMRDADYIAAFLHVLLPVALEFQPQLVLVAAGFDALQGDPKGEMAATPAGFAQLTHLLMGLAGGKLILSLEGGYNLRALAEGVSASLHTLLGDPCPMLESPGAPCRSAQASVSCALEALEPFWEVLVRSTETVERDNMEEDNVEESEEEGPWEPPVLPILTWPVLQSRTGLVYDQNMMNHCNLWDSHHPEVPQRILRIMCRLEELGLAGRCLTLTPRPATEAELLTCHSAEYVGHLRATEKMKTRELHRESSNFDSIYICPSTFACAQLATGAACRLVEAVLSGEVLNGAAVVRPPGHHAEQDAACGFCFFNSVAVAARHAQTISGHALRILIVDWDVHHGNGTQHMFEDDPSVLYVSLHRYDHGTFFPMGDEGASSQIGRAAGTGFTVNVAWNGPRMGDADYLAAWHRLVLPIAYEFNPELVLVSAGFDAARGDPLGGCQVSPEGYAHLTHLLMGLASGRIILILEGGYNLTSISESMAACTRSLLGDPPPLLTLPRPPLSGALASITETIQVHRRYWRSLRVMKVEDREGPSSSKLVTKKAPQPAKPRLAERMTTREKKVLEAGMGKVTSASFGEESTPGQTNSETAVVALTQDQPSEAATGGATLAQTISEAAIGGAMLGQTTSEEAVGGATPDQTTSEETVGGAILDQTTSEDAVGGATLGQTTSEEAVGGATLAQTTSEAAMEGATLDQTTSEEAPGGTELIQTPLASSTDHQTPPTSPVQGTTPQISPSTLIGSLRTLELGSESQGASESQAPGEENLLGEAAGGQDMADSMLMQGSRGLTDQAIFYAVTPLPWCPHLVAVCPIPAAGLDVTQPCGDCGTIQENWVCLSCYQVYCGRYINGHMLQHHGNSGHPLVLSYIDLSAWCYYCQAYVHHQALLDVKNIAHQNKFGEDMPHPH
Type: biochemical
Procedure: To measure the inhibition of HDAC6 activity, purified human HDAC6 (BPS Bioscience; Cat. No. 5006) is incubated with substrate Ac-Arg-Gly-Lys(Ac)-AMC peptide (Bachem Biosciences; Cat. No. 1-1925) for 1 hour at 30° C. in the presence of test compounds or vehicle DMSO control. The reaction is stopped with the HDAC inhibitor trichostatin A (Sigma; Cat. No. T8552) and the amount of Arg-Gly-Lys-AMC generated is quantitated by digestion with trypsin (Sigma; Cat. No. T1426) and subsequent measurement of the amount of AMC released using a fluorescent plate reader (Pherastar; BMG Technologies) set at Ex 340 nm and Em 460 nm. Concentration response curves are generated by calculating the fluorescence increase in test compound-treated samples relative to DMSO-treated controls, and enzyme inhibition (IC50) values are determined from those curves.

Row | IC50 | Structure (SMILES)
1 | 500 to 1000 nM | Cc1cc(C(=O)NC(C)c2cccc(C(=O)NO)c2)c(C)[nH]1 (stereo not drawn) [Compound I-181, N-(1-{3-[(hydroxyamino)carbonyl]phenyl}ethyl)-2,5-dimethyl-1H-pyrrole-3-carboxamide]
2 | 500 to 1000 nM | CCC[C@H](NC(=O)C(C)(C)C)c1ccc(C(=O)NO)cc1 [Compound I-536, 4-{(1S)-1-[(2,2-dimethylpropanoyl)amino]butyl}-N-hydroxybenzamide]
3 | 500 to 1000 nM | CC(C)(C)C(NC(=O)C1(c2ccc(Cl)cc2)CC1)c1ccc(C(=O)NO)cc1 (stereo not drawn) [Compound I-41, 4-[1-({[1-(4-chlorophenyl)cyclopropyl]carbonyl}amino)-2,2-dimethylpropyl]-N-hydroxybenzamide]

Same assay, conditions: bin: greater than 1 μM

Row | IC50 | Structure (SMILES)
4 | > 1000 nM | Cc1noc(C)c1C(=O)NC(c1ccc(C(=O)NO)cc1)C(C)C (stereo not drawn) [Compound I-238, N-(1-{4-[(hydroxyamino)carbonyl]phenyl}-2-methylpropyl)-3,5-dimethylisoxazole-4-carboxamide]
5 | > 1000 nM | CC(C)(C)C(NC(=O)C12CC3CC(CC(C3)C1)C2)c1ccc(C(=O)NO)cc1 (stereo not drawn) [Compound I-162, N-(1-{4-[(hydroxyamino)carbonyl]phenyl}-2,2-dimethylpropyl)adamantane-1-carboxamide]
6 | > 1000 nM | Cc1cc(C(=O)NC(C)c2cccc(C(=O)NO)c2)c(C)o1 (stereo not drawn) [Compound I-104, N-(1-{3-[(hydroxyamino)carbonyl]phenyl}ethyl)-2,5-dimethyl-3-furamide]
7 | > 1000 nM | CC(NC(=O)c1cc2oc(-c3ccccc3)cc2n1C)c1cccc(C(=O)NO)c1 (stereo not drawn) [Compound I-180, N-(1-{3-[(hydroxyamino)carbonyl]phenyl}ethyl)-4-methyl-2-phenyl-4H-furo[3,2-b]pyrrole-5-carboxamide]
8 | > 1000 nM | CC(C)C(NC(=O)c1ccc(-c2ccccc2)cc1)c1cccc(C(=O)NO)c1 (stereo not drawn) [Compound I-323, N-(1-{3-[(hydroxyamino)carbonyl]phenyl}-2-methylpropyl)biphenyl-4-carboxamide]

Same assay, conditions: purified human HDAC6, substrate Ac-Arg-Gly-Lys(Ac)-AMC, 1 hour at 30° C.; reported as bins

Row | IC50 | Structure (SMILES)
9 | < 100 nM | CC(NC(=O)c1ccc2ccccc2n1)c1ccc(C(=O)NO)cc1 (stereo not drawn) [Compound I-128, N-(1-{4-[(hydroxyamino)carbonyl]phenyl}ethyl)quinoline-2-carboxamide]
10 | 100 to 500 nM | Cc1cc(C(=O)NC(c2ccc(C(=O)NO)cc2)C(C)(C)C)c(C)[nH]1 (stereo not drawn) [Compound I-310, N-(1-{4-[(hydroxyamino)carbonyl]phenyl}-2,2-dimethylpropyl)-2,5-dimethyl-1H-pyrrole-3-carboxamide]
11 | < 100 nM | COc1ccc(C(=O)NC(c2ccc(C(=O)NO)cc2)C(C)C)cc1 (stereo not drawn) [Compound I-346, N-(1-{4-[(hydroxyamino)carbonyl]phenyl}-2-methylpropyl)-4-methoxybenzamide]
12 | < 100 nM | CC(NC(=O)Nc1ccc(OC(F)F)cc1)c1ccc(C(=O)NO)cc1 (stereo not drawn) [Compound I-150, 4-{1-[({[4-(difluoromethoxy)phenyl]amino}carbonyl)amino]ethyl}-N-hydroxybenzamide]
13 | 100 to 500 nM | CC(NC(=O)c1cc2ccccc2s1)c1cccc(C(=O)NO)c1 (stereo not drawn) [Compound I-97, N-(1-{3-[(hydroxyamino)carbonyl]phenyl}ethyl)-1-benzothiophene-2-carboxamide]
14 | 100 to 500 nM | CC(C)(C)NC(=O)N[C@H](c1ccc(C(=O)NO)cc1)C(F)(F)F [Compound I-290, 4-((1R)-1-{[(tert-butylamino)carbonyl]amino}-2,2,2-trifluoroethyl)-N-hydroxybenzamide]
15 | < 100 nM | CC(NC(=O)C1CCCCCC1)c1ccc(C(=O)NO)cc1 (stereo not drawn) [Compound I-213, N-(1-{4-[(hydroxyamino)carbonyl]phenyl}ethyl)cycloheptanecarboxamide]
16 | < 100 nM | CC(C)C(NC(=O)c1cccn1C)c1ccc(C(=O)NO)cc1 (stereo not drawn) [Compound I-30, N-(1-{4-[(hydroxyamino)carbonyl]phenyl}-2-methylpropyl)-1-methyl-1H-pyrrole-2-carboxamide]
17 | 100 to 500 nM | Cc1ccc(S(=O)(=O)NC(C)c2ccc(C(=O)NO)cc2)cc1 (stereo not drawn) [Compound I-266, N-hydroxy-4-(1-{[(4-methylphenyl)sulfonyl]amino}ethyl)benzamide]
18 | < 100 nM | CC(NC(=O)NCCc1ccccc1)c1ccc(C(=O)NO)cc1 (stereo not drawn) [Compound I-210, N-hydroxy-4-[1-({[(2-phenylethyl)amino]carbonyl}amino)ethyl]benzamide]
19 | < 100 nM | CC(NC(=O)Nc1ccc2c(c1)OCO2)c1ccc(C(=O)NO)cc1 (stereo not drawn) [Compound I-71, 4-(1-{[(1,3-benzodioxol-5-ylamino)carbonyl]amino}ethyl)-N-hydroxybenzamide]
20 | 100 to 500 nM | CC(NS(=O)(=O)c1ccc(F)cc1)c1ccc(C(=O)NO)cc1 (stereo not drawn) [Compound I-2, 4-(1-{[(4-fluorophenyl)sulfonyl]amino}ethyl)-N-hydroxybenzamide]
21 | < 100 nM | CC(NC(=O)c1cc2ccccc2n1C)c1ccc(C(=O)NO)cc1 (stereo not drawn) [Compound I-98, N-(1-{4-[(hydroxyamino)carbonyl]phenyl}ethyl)-1-methyl-1H-indole-2-carboxamide]
22 | < 100 nM | CC(C)C(NC(=O)c1cccs1)c1ccc(C(=O)NO)cc1 (stereo not drawn) [Compound I-112, N-(1-{4-[(hydroxyamino)carbonyl]phenyl}-2-methylpropyl)thiophene-2-carboxamide]
23 | 100 to 500 nM | CCS(=O)(=O)NC(C)c1ccc(C(=O)NO)cc1 (stereo not drawn) [Compound I-1, 4-{1-[(ethylsulfonyl)amino]ethyl}-N-hydroxybenzamide]
24 | 100 to 500 nM | CC(NS(=O)(=O)c1ccccc1)c1ccc(C(=O)NO)cc1 (stereo not drawn) [Compound I-315, N-hydroxy-4-{1-[(phenylsulfonyl)amino]ethyl}benzamide]
25 | < 100 nM | CC(NC(=O)c1ccc2c(c1)OCO2)c1ccc(C(=O)NO)cc1 (stereo not drawn) [Compound I-297, N-(1-{4-[(hydroxyamino)carbonyl]phenyl}ethyl)-1,3-benzodioxole-5-carboxamide]
26 | < 100 nM | CC(C)[C@@H](NC(=O)c1cc2oc(-c3ccccc3)cc2n1C)c1ccc(C(=O)NO)cc1 [Compound I-332, N-((1R)-1-{4-[(hydroxyamino)carbonyl]phenyl}-2-methylpropyl)-4-methyl-2-phenyl-4H-furo[3,2-b]pyrrole-5-carboxamide]
27 | < 100 nM | CC(NC(=O)c1cn2ccccc2n1)c1ccc(C(=O)NO)cc1 (stereo not drawn) [Compound I-125, N-(1-{4-[(hydroxyamino)carbonyl]phenyl}ethyl)imidazo[1,2-a]pyridine-2-carboxamide]
28 | < 100 nM | COc1cccc(C(=O)NC(C)c2ccc(C(=O)NO)cc2)c1 (stereo not drawn) [Compound I-225, N-(1-{4-[(hydroxyamino)carbonyl]phenyl}ethyl)-3-methoxybenzamide]
29 | < 100 nM | Cc1ccc(F)c(C(=O)NC(C)c2ccc(C(=O)NO)cc2)c1 (stereo not drawn) [Compound I-8, 2-fluoro-N-(1-{4-[(hydroxyamino)carbonyl]phenyl}ethyl)-5-methylbenzamide]
30 | < 100 nM | CC(NC(=O)C1CCCC1)c1ccc(C(=O)NO)cc1 (stereo not drawn) [Compound I-88, 4-{1-[(cyclopentylcarbonyl)amino]ethyl}-N-hydroxybenzamide]
31 | < 100 nM | CC(=O)Nc1cc(NC(C)=O)cc(C(=O)NC(c2ccc(C(=O)NO)cc2)C(C)C)c1 (stereo not drawn) [Compound I-282, 3,5-bis(acetylamino)-N-(1-{4-[(hydroxyamino)carbonyl]phenyl}-2-methylpropyl)benzamide]
32 | < 100 nM | CC(NC(=O)Nc1ccccc1F)c1ccc(C(=O)NO)cc1 (stereo not drawn) [Compound I-74, 4-[1-({[(2-fluorophenyl)amino]carbonyl}amino)ethyl]-N-hydroxybenzamide]
33 | < 100 nM | CC(NC(=O)c1ccc(-n2cccn2)cc1)c1ccc(C(=O)NO)cc1 (stereo not drawn) [Compound I-185, N-(1-{4-[(hydroxyamino)carbonyl]phenyl}ethyl)-4-(1H-pyrazol-1-yl)benzamide]
